The target of data set [1] is T1, Protein deacetylase HDAC6 (Homo sapiens) (UniProt Q9UBN7).
T1 sequence (whole entry): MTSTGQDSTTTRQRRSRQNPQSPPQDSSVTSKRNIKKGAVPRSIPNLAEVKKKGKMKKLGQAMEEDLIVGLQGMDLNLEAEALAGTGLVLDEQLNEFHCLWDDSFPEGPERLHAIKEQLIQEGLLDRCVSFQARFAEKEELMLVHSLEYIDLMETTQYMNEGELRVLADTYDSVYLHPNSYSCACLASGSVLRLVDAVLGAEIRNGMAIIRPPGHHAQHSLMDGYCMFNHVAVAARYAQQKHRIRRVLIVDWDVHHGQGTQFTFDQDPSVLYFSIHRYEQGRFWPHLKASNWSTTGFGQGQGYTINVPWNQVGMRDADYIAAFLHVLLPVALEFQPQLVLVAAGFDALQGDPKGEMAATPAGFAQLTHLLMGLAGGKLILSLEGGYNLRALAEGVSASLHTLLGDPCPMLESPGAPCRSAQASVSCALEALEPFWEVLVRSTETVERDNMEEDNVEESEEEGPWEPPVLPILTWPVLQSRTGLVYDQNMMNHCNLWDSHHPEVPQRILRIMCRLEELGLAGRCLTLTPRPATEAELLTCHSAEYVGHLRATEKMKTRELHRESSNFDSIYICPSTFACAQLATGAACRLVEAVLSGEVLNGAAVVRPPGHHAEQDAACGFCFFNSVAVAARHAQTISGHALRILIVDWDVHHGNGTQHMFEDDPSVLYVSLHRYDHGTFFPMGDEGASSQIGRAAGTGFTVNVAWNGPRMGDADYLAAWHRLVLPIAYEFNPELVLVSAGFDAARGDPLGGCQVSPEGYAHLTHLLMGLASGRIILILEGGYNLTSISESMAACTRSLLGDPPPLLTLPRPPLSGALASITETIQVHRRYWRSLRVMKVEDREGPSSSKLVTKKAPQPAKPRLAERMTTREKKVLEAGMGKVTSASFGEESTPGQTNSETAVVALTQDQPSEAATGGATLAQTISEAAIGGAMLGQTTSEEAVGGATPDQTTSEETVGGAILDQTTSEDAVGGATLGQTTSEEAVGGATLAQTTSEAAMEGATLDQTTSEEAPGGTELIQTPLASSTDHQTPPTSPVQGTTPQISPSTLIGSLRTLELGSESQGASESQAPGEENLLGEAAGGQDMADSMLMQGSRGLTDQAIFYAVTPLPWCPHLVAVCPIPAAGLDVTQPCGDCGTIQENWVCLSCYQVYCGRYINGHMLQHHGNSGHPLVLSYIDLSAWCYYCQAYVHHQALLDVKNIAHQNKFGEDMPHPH
Kind of data set: Inhibition of HDAC6 in human K562 cells assessed as accumulation of acetylation of […] at 1 to 10 uM measured after 48 hrs by Western blot analysis. As to conditions: dose 1-10 µM. The data set is classed as cell-based.

Data set [2] concerns A549. Kind of data set: Antitumor activity against human A549 cells xenografted in BALB/c nude mouse assessed as tumor growth inhibition at 25 mg/kg, iv administered for 21 consecutive days relative to control. The data set is classed as functional. As to conditions: 504 h, time 21 day, read-out: TGI.
The test system of a further data set is HeLa. Briefly: Potency index, ratio of SAHA IC50 to test compound IC50 for antiproliferative activity against human HeLa cells assessed as cell growth inhibition measured after 48 hrs by CCK8 assay. Type of data set: functional.
A short description of data set [3]: Toxicity in BALB/c nude mouse xenografted with human A549 cells assessed as body weight loss at 0.75 to 1.5 mg, IT(intratumoral) administered for 21 consecutive days. The settings on record: in vivo, other, 504 h, dose 0.75-1.5 mg, time 21 day.
Data set [4] addresses T1, Protein deacetylase HDAC6 (Homo sapiens). Kind of data set: Inhibition of HDAC6 in human K562 cells assessed as accumulation of acetylation of H3 at 1 to 10 uM measured after 48 hrs by Western blot analysis. The data set is classed as cell-based. As to conditions: dose 1-10 µM.
Another data set relates to K562. Briefly: Cycle arrest in human K562 cells assessed as increase in cell population at S phase measured after 24 hrs by propidium iodide/RNase staining based flow cytometry. As to conditions: dose 2.5-10 µM. Type of data set: functional.
The test system of the next data set is MCF7. Briefly: Induction of apoptosis in human MCF7 cells assessed as increase in sum of early and late apoptotic cells at 2.5 to 10 uM measured after 48 hrs by Annexin-V/FITC-propidium iodide staining based flow cytometry analysis. Type of data set: functional, cell-based. The settings on record: dose 2.5-10 µM.
In data set [5] the test system is A549. Briefly: Potency index, ratio of SAHA IC50 to test compound IC50 for antiproliferative activity against human A549 cells assessed as cell growth inhibition measured after 48 hrs by CCK8 assay. The data set is classed as functional.

Active and inactive are the calls of the source. No cut-off for these calls is given here.

The values below come from ChEMBL document CHEMBL4842385, “Indirubin Derivatives as Dual Inhibitors Targeting Cyclin-Dependent Kinase and Histone Deacetylase for Treating Cancer” (J Med Chem, 2021).

Take `O=C(CCCO/N=C1/C(=C2/C(=O)Nc3ccccc32)Nc2ccccc21)NO`: the inhibition entry in data set [1] and in data set [4] was “inactive” throughout. In the data set with A549 [2], the inhibition in vivo at 25 mg/kg amounted to 43.2%. For the same compound, the “Ratio IC50” value in the data set with HeLa and in the data set with A549 [5] was 3 throughout. Also, the Activity entry was “Non-Toxic” in data set [3] and “Dose-Dependent Effect” in the data set on K562. Further, the result in the data set with MCF7 was Active.
